According to ChEMBL document CHEMBL2321733, “[3a,4]-Dihydropyrazolo[1,5a]pyrimidines: Novel, Potent, and Selective Phosphatidylinositol-3-kinase β Inhibitors” (ACS Med Chem Lett, 2013):
Converted amounts (≈) assume the structure as drawn.

How the values were obtained:
[1] = target: T1, Phosphatidylinositol 4,5-bisphosphate 3-kinase catalytic subunit beta isoform (Homo sapiens, UniProt P42338); assay: Inhibition of PI3Kbeta (unknown origin)
[2] = target: Phosphatidylinositol 4,5-bisphosphate 3-kinase catalytic subunit gamma isoform (Homo sapiens, UniProt P48736); assay: Inhibition of PI3Kgamma (unknown origin)
[3] = target: T2, Phosphatidylinositol 4,5-bisphosphate 3-kinase catalytic subunit delta isoform (Homo sapiens, UniProt O00329); assay: Inhibition of PI3Kdelta (unknown origin)
T2 sequence (O00329 whole entry): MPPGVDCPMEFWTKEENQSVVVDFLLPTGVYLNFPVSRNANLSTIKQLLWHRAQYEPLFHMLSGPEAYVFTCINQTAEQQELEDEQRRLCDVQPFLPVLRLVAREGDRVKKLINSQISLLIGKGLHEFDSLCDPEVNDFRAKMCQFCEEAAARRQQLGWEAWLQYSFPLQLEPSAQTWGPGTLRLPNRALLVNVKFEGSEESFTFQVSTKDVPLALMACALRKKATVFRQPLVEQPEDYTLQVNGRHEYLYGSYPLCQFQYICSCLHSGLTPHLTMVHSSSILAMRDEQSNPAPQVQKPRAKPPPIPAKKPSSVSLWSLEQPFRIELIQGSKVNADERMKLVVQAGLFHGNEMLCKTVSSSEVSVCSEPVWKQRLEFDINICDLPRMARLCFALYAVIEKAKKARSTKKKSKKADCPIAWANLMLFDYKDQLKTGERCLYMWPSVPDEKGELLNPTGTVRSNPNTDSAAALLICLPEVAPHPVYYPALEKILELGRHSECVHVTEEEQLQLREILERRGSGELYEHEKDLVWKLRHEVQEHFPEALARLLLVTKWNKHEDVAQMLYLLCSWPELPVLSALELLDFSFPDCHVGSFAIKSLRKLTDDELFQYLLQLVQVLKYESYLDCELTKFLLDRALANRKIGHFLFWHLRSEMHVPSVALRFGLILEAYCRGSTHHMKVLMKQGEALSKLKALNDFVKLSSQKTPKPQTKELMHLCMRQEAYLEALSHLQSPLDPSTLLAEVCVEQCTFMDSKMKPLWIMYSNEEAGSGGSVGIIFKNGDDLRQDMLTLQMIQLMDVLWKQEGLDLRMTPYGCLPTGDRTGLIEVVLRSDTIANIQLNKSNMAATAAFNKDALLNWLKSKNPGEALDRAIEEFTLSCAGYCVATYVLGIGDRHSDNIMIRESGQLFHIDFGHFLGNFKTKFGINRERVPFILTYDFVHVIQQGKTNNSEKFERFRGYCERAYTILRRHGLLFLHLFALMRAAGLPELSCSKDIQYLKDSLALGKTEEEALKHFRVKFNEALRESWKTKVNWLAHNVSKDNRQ

[4] = target: Phosphatidylinositol 4,5-bisphosphate 3-kinase catalytic subunit alpha isoform (Homo sapiens, UniProt P42336); assay: Inhibition of PI3Kalpha (unknown origin)
[5] = Plasma protein binding in mouse serum by equilibrium dialysis; assay type: ADME, cell-free; details: read-out: PPB (converted)
[6] = target: T1, Phosphatidylinositol 4,5-bisphosphate 3-kinase catalytic subunit beta isoform; assay: Inhibition of PI3Kbeta human in PTEN-null MDA-MB-468 cells assessed as reduction of AKT phosphorylation at Ser 473 in presence of serum; assay type: cell-based
[7] = Plasma protein binding in rat serum by equilibrium dialysis; assay type: ADME, cell-free; details: read-out: PPB (converted)
[8] = Plasma protein binding in human serum by equilibrium dialysis; assay type: ADME, cell-free; details: read-out: PPB (converted)
[9] = target: T1, Phosphatidylinositol 4,5-bisphosphate 3-kinase catalytic subunit beta isoform; assay: Inhibition of PI3Kbeta human in PTEN-null MDA-MB-468 cells assessed as reduction of AKT phosphorylation at Ser 473 in absence of serum; assay type: cell-based
[10] = target: T1, Phosphatidylinositol 4,5-bisphosphate 3-kinase catalytic subunit beta isoform; assay: Inhibition of PI3Kbeta human in PTEN wild type HCC1954 cells assessed as reduction of AKT phosphorylation at Ser 473; assay type: cell-based
[11] = Clearance in mouse; assay type: ADME, organism-based; details: in vivo
[12] = Aqueous solubility of the compound; assay type: physicochemical
Mus musculus = assay: Dose normalized AUC in po dosed mouse; assay type: ADME, organism-based; details: in vivo
[13] = Permeability of the compound across MDCK cells; assay type: ADME, cell-based, Canis lupus familiaris; details: dog, read-out: permeability
[14] = Oral bioavailability mouse; assay type: ADME, organism-based; details: in vivo
[15] = Clearance in rat; assay type: ADME, organism-based; details: in vivo
[16] = Clearance in monkey; assay type: ADME, organism-based, Macaca mulatta; details: rhesus monkey, in vivo

Sequence of Phosphatidylinositol 4,5-bisphosphate 3-kinase catalytic subunit gamma isoform (P48736 whole entry, canonical isoform): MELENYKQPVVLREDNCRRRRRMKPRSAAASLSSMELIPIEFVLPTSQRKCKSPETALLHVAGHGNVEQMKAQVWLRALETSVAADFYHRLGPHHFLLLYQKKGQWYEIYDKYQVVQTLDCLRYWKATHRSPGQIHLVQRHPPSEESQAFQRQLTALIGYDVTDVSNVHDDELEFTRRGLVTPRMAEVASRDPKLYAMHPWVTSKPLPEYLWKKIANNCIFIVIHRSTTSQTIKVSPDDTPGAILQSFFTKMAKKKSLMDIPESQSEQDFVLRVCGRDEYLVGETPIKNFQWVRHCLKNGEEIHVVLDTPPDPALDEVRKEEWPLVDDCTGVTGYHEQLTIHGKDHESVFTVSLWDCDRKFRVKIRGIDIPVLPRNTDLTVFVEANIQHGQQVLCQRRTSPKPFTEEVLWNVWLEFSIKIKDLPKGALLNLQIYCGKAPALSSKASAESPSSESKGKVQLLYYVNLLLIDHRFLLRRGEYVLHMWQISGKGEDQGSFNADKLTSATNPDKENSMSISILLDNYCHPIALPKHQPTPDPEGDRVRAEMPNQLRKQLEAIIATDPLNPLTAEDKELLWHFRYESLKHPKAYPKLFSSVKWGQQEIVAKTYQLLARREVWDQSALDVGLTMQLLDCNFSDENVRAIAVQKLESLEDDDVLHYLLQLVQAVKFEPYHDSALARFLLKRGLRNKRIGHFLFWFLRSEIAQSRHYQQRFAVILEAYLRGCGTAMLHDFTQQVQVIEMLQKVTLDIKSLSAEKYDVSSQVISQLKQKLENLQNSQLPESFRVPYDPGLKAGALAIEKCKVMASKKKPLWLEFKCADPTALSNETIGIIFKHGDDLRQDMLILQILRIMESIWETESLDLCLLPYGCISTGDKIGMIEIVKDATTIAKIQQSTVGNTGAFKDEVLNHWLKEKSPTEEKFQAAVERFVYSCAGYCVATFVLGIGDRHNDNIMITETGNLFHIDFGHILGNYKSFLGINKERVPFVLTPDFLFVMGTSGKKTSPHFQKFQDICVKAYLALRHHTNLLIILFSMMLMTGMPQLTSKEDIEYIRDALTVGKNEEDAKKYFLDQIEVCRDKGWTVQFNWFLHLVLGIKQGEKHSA
T1 sequence (P42338 whole entry, canonical isoform): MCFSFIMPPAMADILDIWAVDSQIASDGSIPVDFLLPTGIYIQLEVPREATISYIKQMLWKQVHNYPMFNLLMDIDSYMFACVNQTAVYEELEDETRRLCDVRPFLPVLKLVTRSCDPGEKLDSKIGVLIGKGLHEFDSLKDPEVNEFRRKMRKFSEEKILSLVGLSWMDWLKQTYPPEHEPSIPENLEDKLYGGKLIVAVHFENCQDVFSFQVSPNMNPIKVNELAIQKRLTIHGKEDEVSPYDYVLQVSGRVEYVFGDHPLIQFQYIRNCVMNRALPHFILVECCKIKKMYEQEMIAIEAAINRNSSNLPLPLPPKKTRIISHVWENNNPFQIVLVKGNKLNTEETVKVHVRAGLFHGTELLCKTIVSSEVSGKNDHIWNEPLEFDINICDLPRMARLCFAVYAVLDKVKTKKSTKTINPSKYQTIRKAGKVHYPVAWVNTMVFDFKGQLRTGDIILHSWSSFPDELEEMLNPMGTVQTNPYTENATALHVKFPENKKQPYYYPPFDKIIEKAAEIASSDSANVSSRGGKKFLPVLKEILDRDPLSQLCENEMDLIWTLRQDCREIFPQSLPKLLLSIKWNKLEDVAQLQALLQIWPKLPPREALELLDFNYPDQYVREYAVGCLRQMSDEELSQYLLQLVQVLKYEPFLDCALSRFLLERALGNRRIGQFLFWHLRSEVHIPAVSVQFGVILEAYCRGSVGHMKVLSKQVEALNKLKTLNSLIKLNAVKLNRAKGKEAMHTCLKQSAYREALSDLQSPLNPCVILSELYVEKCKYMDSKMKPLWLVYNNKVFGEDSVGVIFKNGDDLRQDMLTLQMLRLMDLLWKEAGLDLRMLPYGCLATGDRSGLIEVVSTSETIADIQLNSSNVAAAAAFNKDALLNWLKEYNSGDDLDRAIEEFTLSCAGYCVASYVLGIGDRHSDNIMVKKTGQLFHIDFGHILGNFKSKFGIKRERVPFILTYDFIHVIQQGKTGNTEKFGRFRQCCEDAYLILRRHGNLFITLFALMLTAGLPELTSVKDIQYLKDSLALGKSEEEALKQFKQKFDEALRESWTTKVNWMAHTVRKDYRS
Sequence of Phosphatidylinositol 4,5-bisphosphate 3-kinase catalytic subunit alpha isoform (P42336 whole entry, canonical isoform): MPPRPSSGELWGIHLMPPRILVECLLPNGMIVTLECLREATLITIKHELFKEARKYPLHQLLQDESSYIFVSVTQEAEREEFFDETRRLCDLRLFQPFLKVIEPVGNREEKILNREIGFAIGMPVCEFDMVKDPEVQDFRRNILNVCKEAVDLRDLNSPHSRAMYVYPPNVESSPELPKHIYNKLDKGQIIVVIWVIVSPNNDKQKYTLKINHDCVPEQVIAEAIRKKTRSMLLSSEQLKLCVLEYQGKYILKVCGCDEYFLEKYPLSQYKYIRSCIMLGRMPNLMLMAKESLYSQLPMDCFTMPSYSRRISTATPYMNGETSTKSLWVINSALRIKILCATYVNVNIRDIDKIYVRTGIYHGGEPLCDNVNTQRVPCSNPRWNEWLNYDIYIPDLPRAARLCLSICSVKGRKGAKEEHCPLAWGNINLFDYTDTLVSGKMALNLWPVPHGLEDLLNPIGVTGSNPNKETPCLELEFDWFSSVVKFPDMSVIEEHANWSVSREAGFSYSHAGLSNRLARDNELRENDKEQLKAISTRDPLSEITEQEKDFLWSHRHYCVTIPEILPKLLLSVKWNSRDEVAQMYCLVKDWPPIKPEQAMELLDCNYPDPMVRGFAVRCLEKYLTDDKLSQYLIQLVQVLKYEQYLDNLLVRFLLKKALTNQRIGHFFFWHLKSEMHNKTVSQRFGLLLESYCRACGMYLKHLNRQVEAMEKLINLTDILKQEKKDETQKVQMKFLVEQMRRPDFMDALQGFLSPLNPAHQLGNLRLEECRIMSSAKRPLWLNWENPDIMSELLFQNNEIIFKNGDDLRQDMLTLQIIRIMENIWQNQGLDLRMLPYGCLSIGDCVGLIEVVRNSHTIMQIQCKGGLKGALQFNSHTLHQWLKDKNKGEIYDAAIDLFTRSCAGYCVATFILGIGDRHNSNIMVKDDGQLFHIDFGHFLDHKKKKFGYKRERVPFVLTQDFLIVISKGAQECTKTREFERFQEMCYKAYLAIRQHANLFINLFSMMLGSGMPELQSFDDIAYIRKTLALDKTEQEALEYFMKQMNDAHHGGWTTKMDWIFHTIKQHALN

SMILES	IC50 [1] [µM]	IC50 [2] [µM]	IC50 [3] [µM]	IC50 [4] [µM]	EC50 [6] [µM]	EC50 [10] [µM]	also measured
COc1cc(N2CCOCC2)nc2c(Cc3cccc(C(F)(F)F)c3C)cnn12	1	> 5.01	> 0.631	> 5.01	–	–	–
Cc1nn2c(C#N)cc(N3CCOCC3)nc2c1Cc1cccc(C(F)(F)F)c1C	> 1.26	> 3.16	> 0.251	> 1	–	–	–
Cc1c(Cc2cnn3c(O)cc(N4CCOCC4)nc23)cccc1C(F)(F)F	0.00501	0.501	0.02	0.316	1	> 31.6	EC50 [9]: 0.0631 µM
Oc1cc(N2CCOCC2)nc2c(Cc3cccc(Cl)c3Cl)c(C(F)(F)F)nn12	0.000398	0.251	0.00631	0.2	5.01	> 31.6	–
Cc1nn2c(NC(N)=O)cc(N3CCOCC3)nc2c1Cc1cccc(C(F)(F)F)c1C	0.02	> 6.31	> 0.631	> 6.31	> 31.6	> 31.6	–
Cc1nn2c(O)cc(C3CCOCC3)nc2c1Cc1cccc(C(F)(F)F)c1C	0.00398	2.51	0.126	> 1.58	10	> 31.6	–
COc1nn2c(O)cc(-c3ccncc3)nc2c1Cc1cccc(Cl)c1Cl	0.00126	0.501	0.0251	0.158	12.6	> 31.6	EC50 [9]: 0.158 µM
Cc1nn2c(O)cc(N3CCOCC3)nc2c1Cc1cccc(C(F)(F)F)c1C	0.000398	0.316	0.0251	0.316	1.58	> 15.8	fraction unbound [5]: ≤ 0.001; fraction unbound [7]: ≤ 0.001; clearance [11]: 0.222 L/h/kg; solubility [12]: 134 µM (≈ 54.5 µg/mL); fraction unbound [8]: ≤ 0.001; AUC/dose (Mus musculus): 2321 ng·h/mL/mg/kg; Papp [13]: 753 nm/s; bioavailability [14]: 51%; clearance [15]: 0.39 L/h/kg; clearance [16]: 0.0198 L/h/kg; EC50 [9]: 0.0316 µM
CCc1nn2c(O)cc(C3CCOCC3)nc2c1Cc1cccc(Cl)c1Cl	0.0126	> 7.94	> 0.398	> 1.58	–	–	–
Oc1cc(C2CCOCC2)nc2c(Cc3cccc(Cl)c3Cl)c(C(F)(F)F)nn12	0.00631	> 6.31	0.1	2.51	–	–	–
Cc1nn2c(C(=O)O)cc(N3CCOCC3)nc2c1Cc1cccc(C(F)(F)F)c1C	0.00501	> 6.31	0.0398	1.58	1	> 31.6	–

Further lines, with some results ahead:

IC50 [1] [µM]	IC50 [2] [µM]	IC50 [3] [µM]	IC50 [4] [µM]	EC50 [6] [µM]	EC50 [10] [µM]	SMILES	also measured
0.000631	–	–	–	0.0158	–	Cc1c(Cn2c(C)nc(=O)c3sc(N4CCOCC4)nc32)cccc1C(F)(F)F	fraction unbound [5]: 0.118; fraction unbound [7]: 0.254; fraction unbound [8]: 0.137; EC50 [9]: 0.00631 µM
0.00251	0.398	0.0158	0.2	–	–	Cc1nn2c(O)cc(N3CCOC(C)C3)nc2c1Cc1cccc(C(F)(F)F)c1C (centres undefined)	–
0.00794	> 3.98	0.631	1.58	2	> 31.6	Nc1nn2c(O)cc(C3CCOCC3)nc2c1Cc1cccc(Cl)c1Cl	–
0.0631	> 5.01	> 0.631	> 2	–	–	Cc1c(Cc2c(=O)[nH]n3c(=O)cc(C4CCOCC4)[nH]c23)cccc1C(F)(F)F	–
0.001	0.631	0.0251	0.316	1	> 31.6	Cc1nn2c(O)cc(N3CCOCC3)nc2c1Cc1cccc2ccccc12	–
> 1.26	> 5.01	> 0.631	> 2	–	–	CC(=O)Nc1cc(N2CCOCC2)nc2c(Cc3cccc(C(F)(F)F)c3C)c(C)nn12	–
0.316	3.16	0.158	0.251	–	–	Cc1nn2c(O)cc(N3CCOCC3=O)nc2c1Cc1cccc(C(F)(F)F)c1C	–
0.00251	0.316	0.1	0.501	3.16	> 31.6	Cc1c(Cc2cnn3c(O)cc(-c4ccncc4)nc23)cccc1C(F)(F)F	EC50 [9]: 0.0251 µM
> 3.16	> 6.31	> 0.631	> 1.58	–	–	CNc1cc(N2CCOCC2)nc2c(Cc3cccc(C(F)(F)F)c3C)c(C)nn12	–
1.26	5.01	> 0.631	> 1.58	–	–	Cc1nn2c(NCCO)cc(C3CCOCC3)nc2c1Cc1cccc(C(F)(F)F)c1C	–
0.0251	> 6.31	> 0.631	> 6.31	> 31.6	> 31.6	Cc1nn2c(C(N)=O)cc(N3CCOCC3)nc2c1Cc1cccc(C(F)(F)F)c1C	–
0.794	2	> 0.501	> 1.58	–	–	Cc1nn2ccc(C3CCOCC3)nc2c1Cc1cccc(C(F)(F)F)c1C	–
0.316	> 5.01	> 0.631	> 5.01	–	–	Cc1c(Cc2cnn3c(Cl)cc(N4CCOCC4)nc23)cccc1C(F)(F)F	–
0.0398	> 6.31	0.251	> 1.58	–	–	Cc1nn2c(NO)cc(C3CCOCC3)nc2c1Cc1cccc(C(F)(F)F)c1C	–
0.00251	0.398	0.0794	0.631	–	–	Oc1cc(-c2ccncc2)nc2c(Cc3cccc(Cl)c3Cl)c(C(F)(F)F)nn12	–
0.000631	0.398	0.02	0.158	20	> 31.6	CCc1nn2c(O)cc(-c3ccncc3)nc2c1Cc1cccc(Cl)c1Cl	–
0.0398	> 1.48	0.158	> 2	1	> 31.6	Cc1nn2c(N)cc(N3CCOCC3)nc2c1Cc1cccc(C(F)(F)F)c1C	–
